In patent US11197904B2, “Pharmaceutical compositions for preventions and managements of dementia, infectious diseases, cancers, periodontitis, dental caries, diabetes, obesity, osteoporosis and chronic pain and methods thereof” (Chung Shan Medical University, priority 2018, dated 2021):
In brackets after ≈: the same amount, converted by molar mass. Read-outs that look alike come from different tables or passages of the source. Marks after values point to notes of the source that are not given here.

Experiments:
[1] = test system: Porphyromonas gingivalis (P.g.); assay: microbe, parasite or virus in culture; settings: read-out: IC50, 50% inhibition on bacterial proliferation, P. g.
[2] = test system: Streptococcus mutans (S.m., UA159); assay: microbe, parasite or virus in culture; settings: read-out: IC50, 50% inhibition on bacterial proliferation, UA159
[3] = test system: Pseudomonas aeruginosa (P.a.); assay: microbe, parasite or virus in culture; settings: read-out: IC50, 50% inhibition on bacterial proliferation, P. a.
[4] = test system: Staphylococcus aureus (S.a); assay: microbe, parasite or virus in culture; settings: read-out: IC50, 50% inhibition on bacterial proliferation, S. a.
[5] = test system: Porphyromonas gingivalis (P.g.); settings: for IC50, 50% inhibition on bacterial proliferation, P. g.: single agent
[6] = test system: Streptococcus mutans (S.m., UA159); settings: for IC50, 50% inhibition on bacterial proliferation, UA159: single agent
[7] = test system: Pseudomonas aeruginosa (P.a.); settings: for IC50, 50% inhibition on bacterial proliferation, P. a.: single agent; for IC50: read-out: IC50, P. a., metals alone
[8] = test system: Staphylococcus aureus (S.a); settings: for IC50, 50% inhibition on bacterial proliferation, S. a.: single agent; for IC50: read-out: IC50, S. a., metals alone
[9] = test system: Lactobacillus reuteri (L.r.); assay: Proliferation of the probiotic Lactobacillus reuteri (OD600); format: cell-based
[10] = 3 to 10 times higher than the listed IC50, Table 1
[11] = read-out: IC50, P. g., metals alone
[12] = read-out: IC50, UA159, metals alone

Row | Compound | IC50 [1] | IC50 [2] | IC50 [3] | IC50 [4] | IC50, 50% inhibition on bacterial proliferation, P. g. [5] | IC50, 50% inhibition on bacterial proliferation, UA159 [6] | IC50, 50% inhibition on bacterial proliferation, P. a. [7] | IC50, 50% inhibition on bacterial proliferation, S. a. [8] | also measured
1 | CC(Cc1ccc(O)c(O)c1)C(C)Cc1ccc(O)c(O)c1 (centres unmarked) [Nordihydro-guaiaretic acid] | < 30 µg/mL | 50 µg/mL (≈ 165 µM) | > 300 µg/mL | 66 µg/mL (≈ 218 µM) |  |  |  |  | 
2 | C[C@@H]1[C@H](O)[C@@H](C)/C=C/C=C/CC/C=C/C=C/C=C/C=C/C(O[C@H]2O[C@H](C)[C@@H](O)[C@H](N)[C@@H]2O)CC2O[C@](O)(CC(O)C(O)CCC(O)CC(O)CC(O)CC(=O)O[C@H]1C)CC(O)C2C(=O)O (some centres unmarked) [Nystatin] |  |  |  |  | 228 µg/mL (≈ 246 µM) | >300 µg/mL | >300 µg/mL | >300 µg/mL | 
3 | N.N.[Cl][Pt][Cl] [Pt] |  |  |  |  |  |  |  |  | IC50 ([5]; read-out: IC50 of single drug, Table 14, P. g., drug alone): 69 µM; IC50 ([6]; read-out: IC50 of single drug, Table 14, UA159, drug alone): > 100 µM
4 | O=c1c(O)c(-c2ccc(O)c(O)c2)oc2cc(O)cc(O)c12 [Quercetin] | > 100 µg/mL | 46 µg/mL (≈ 152 µM) | > 100 µg/mL | > 100 µg/mL |  |  |  |  | 
5 | C=C[C@H]1C[N@@]2CC[C@H]1C[C@H]2[C@H](O)c1ccnc2ccc(OC)cc12 [Quinine] | 43 µg/mL (≈ 133 µM) | > 100 µg/mL | > 100 µg/mL | > 100 µg/mL |  |  |  |  | 
6 | CO[C@H]1/C=C/O[C@@]2(C)Oc3c(C)c(O)c4c(O)c(c(/C=N/N5CCN(C)CC5)c(O)c4c3C2=O)NC(=O)/C(C)=C\C=C\[C@H](C)[C@H](O)[C@@H](C)[C@@H](O)[C@@H](C)[C@H](OC(C)=O)[C@@H]1C [Rifampin] | 0.45 µg/mL (≈ 0.547 µM) | 0.013 µg/mL (≈ 0.0158 µM) | 26 µg/mL (≈ 31.6 µM) | 0.013 µg/mL (≈ 0.0158 µM) |  |  |  |  | 
7 | N.N.N.N.N.N.N.N.N.N.N.N.N.N.[Cl-].[Cl-].[Cl-].[Cl-].[Cl-].[Cl-].[O-2].[O-2].[Ru+3].[Ru+3].[Ru+4] [Ruthenium red] |  |  |  |  |  |  |  |  | Inhibition on proliferation of Lactobacillus reuteri [9, 10]: RuR*,; IC50 [5, 11]: 74 µM; IC50 [6, 12]: 644 µM; IC50 [7]: 32 µM; IC50 [8]: > 116 µM
8 | [Cl-].[Cl-].[Sr+2] [SrCl2] |  |  |  |  |  |  |  |  | Inhibition on proliferation of Lactobacillus reuteri [9, 10]: SrCl2*; IC50 [5, 11]: > 3000 µM; IC50 [6, 12]: > 3000 µM; IC50 [7]: 4190 µM; IC50 [8]: 3590 µM
9 | [H]/N=C(/N)N[C@H]1[C@H](O)[C@@H](O)[C@H](O[C@@H]2O[C@@H](C)[C@](O)(C=O)[C@H]2O[C@@H]2O[C@@H](CO)[C@H](O)[C@@H](O)[C@@H]2NC)[C@@H](N/C(N)=N\[H])[C@@H]1O [Streptomycin] | 9 µg/mL (≈ 15.5 µM) | 21 µg/mL (≈ 36.1 µM) | 5 µg/mL (≈ 8.6 µM) | 0.2 µg/mL (≈ 0.344 µM) |  |  |  |  | 
10 | Cc1nc(C)c(C)nc1C [Tetramethyl-pyrazine] | 37 µg/mL (≈ 272 µM) | > 300 µg/mL | > 300 µg/mL | > 300 µg/mL |  |  |  |  | 
11 | CSc1ccc2c(c1)N(CCC1CCCCN1C)c1ccccc1S2 (centres unmarked) [Thioridazine] |  |  |  |  |  |  |  |  | Inhibition on proliferation of Lactobacillus reuteri ([9]; 3 to 10 times higher IC50, Table 2): TRZ, Thioridazine*
12 | NC[C@H]1O[C@H](O[C@H]2[C@H](O)[C@@H](O[C@H]3O[C@H](CO)[C@@H](O)[C@H](N)[C@H]3O)[C@H](N)C[C@@H]2N)[C@H](N)C[C@@H]1O [Tobramycin] | 4 µg/mL (≈ 8.56 µM) | < 3 µg/mL | 9 µg/mL (≈ 19.3 µM) | < 3 µg/mL |  |  |  |  | 
13 | COc1ccc(CCN(C)CCCC(C#N)(c2ccc(OC)c(OC)c2)C(C)C)cc1OC (centres unmarked) [Verapamil] | 137 µg/mL (≈ 301 µM) | > 300 µg/mL | > 300 µg/mL | > 300 µg/mL |  |  |  |  | 
14 | O=S(=O)([O-])[O-].[Zn+2] [ZnSO4] |  |  |  |  |  |  |  |  | Inhibition on proliferation of Lactobacillus reuteri [9, 10]: ZnSO4*; IC50 [5, 11]: 1060 µM; IC50 [6, 12]: 961 µM; IC50 [7]: 1160 µM; IC50 [8]: 939 µM
15 | Cardiotoxin |  |  |  |  | 11 µg/mL | >10 µg/mL | >10 µg/mL | >10 µg/mL | 
16 | Lysozyme |  |  |  |  | 21 µg/mL | >100 µg/mL | >100 µg/mL | >100 µg/mL | 
17 | Phospholipase A2 |  |  |  |  | >10 µg/mL | >10 µg/mL | >10 µg/mL | >10 µg/mL | 
18 | polyarginine |  |  |  |  | 25 µg/mL | >100 µg/mL | >100 µg/mL | >100 µg/mL | 
19 | protamine |  |  |  |  | 31 µg/mL | >100 µg/mL | >100 µg/mL | >100 µg/mL | 
